Test [1] concerns the target T1, human LDHD (Homo sapiens, UniProt Q86WU2).
T1 construct: ~50 kDa predicted, dimer by gel filtration
T1 sequence (Q86WU2 53-484 isoform Q86WU2-2): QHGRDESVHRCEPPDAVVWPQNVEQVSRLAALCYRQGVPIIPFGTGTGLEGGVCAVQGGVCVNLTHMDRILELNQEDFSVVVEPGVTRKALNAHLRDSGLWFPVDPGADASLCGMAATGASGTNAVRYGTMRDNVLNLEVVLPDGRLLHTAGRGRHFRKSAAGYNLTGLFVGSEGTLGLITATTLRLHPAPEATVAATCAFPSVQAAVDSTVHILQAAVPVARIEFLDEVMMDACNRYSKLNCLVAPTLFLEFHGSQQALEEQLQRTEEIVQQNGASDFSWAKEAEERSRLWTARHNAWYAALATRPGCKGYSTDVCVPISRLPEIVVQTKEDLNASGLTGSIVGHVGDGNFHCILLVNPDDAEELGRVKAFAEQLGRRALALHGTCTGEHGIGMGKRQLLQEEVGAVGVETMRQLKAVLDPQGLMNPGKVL
The test is described as follows: cytochrome c reduction, absorbance at […] nm. It counts as biochemical. The note with it: 200 µM bovine heart cytochrome c as electron acceptor, 50 mM potassium phosphate pH 8.5; 10 mM substrate.

For test [2], the target named is T1, human LDHD. The test is described as follows: cytochrome c reduction, absorbance at […] nm. It counts as biochemical. The note with it: 200 µM bovine heart cytochrome c as electron acceptor, 50 mM potassium phosphate pH 8.5.
Test [3] has as its target human D-lactate dehydrogenase (LDHD) isoform 2 (Komagataella phaffii | human). The test is described as follows: SEC; Superdex 200 10/300 GL, after elution from Talon cobalt resin; running buffer not stated. In general terms: SEC sorts molecules by how far they enter the pores of the column.

As a reminder, the Km is the concentration of substrate that gives half-maximal velocity. The stoichiometry N is a count of units in the complex or per binding partner.

For the molecule `CC[C@@H](O)C(=O)O` [D-2-hydroxybutyrate], the “relative initial rate at 10 mM” value on human LDHD [1] was “we identified D-2-hydroxybutyrate as another LDHD substrate that can be used to reduce cytochrome c”.

With `C[C@@H](O)C(=O)O` [D-lactate], at human LDHD [2], the Km was found to be 112 µM.

In test [3], “human D-lactate dehydrogenase (LDHD) isoform 2 (enzyme)” yielded a stoichiometry N of 2.

Source of the values: publication PMC11052718, “PMF-seq: a highly scalable screening strategy for linking genetics to mitochondrial bioenergetics” (Nature Metabolism, 2024).
